# Experimental data published in ChEMBL document CHEMBL1129203, “Structure-activity relationships in 3-oxo-1,4-benzodiazepine-2-acetic acid GPIIb/IIIa antagonists. The 2-benzazepine series” (Bioorg Med Chem Lett, 1996).
# Experiments:
# Homo sapiens = species on record: Homo sapiens; assay: In vitro inhibition of platelet aggregation in human platelet-rich plasma induced by ADP; assay type: functional
# [1] = target: Integrin alpha-IIb/beta-3 (Homo sapiens, UniProt P05106+P08514); assay: In vitro binding affinity against human alpha IIb beta-3 integrin; assay type: protein-complex assay
# Integrin alpha-IIb/beta-3, sequence (P05106 27-788 limits assumed): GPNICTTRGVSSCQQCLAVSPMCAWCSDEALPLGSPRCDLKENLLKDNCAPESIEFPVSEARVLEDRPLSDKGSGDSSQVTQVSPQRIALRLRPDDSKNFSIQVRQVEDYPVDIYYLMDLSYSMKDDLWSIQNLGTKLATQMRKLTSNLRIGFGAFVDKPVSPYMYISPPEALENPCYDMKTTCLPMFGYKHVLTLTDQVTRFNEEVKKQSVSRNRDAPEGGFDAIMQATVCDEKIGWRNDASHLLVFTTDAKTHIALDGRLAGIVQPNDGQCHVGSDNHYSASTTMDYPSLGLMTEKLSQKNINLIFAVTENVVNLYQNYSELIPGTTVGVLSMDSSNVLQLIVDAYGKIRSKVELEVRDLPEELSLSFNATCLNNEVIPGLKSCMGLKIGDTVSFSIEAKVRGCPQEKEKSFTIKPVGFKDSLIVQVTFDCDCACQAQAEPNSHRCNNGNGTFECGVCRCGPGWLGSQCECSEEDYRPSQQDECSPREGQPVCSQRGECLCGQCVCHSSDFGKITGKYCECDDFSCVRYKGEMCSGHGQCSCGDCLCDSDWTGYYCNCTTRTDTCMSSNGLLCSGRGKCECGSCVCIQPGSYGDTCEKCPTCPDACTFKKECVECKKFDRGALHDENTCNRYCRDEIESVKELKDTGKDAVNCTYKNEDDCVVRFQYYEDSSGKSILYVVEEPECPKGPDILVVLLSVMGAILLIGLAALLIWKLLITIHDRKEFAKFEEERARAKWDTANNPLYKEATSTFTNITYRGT
# Integrin alpha-IIb/beta-3, sequence (P08514 32-887 limits assumed): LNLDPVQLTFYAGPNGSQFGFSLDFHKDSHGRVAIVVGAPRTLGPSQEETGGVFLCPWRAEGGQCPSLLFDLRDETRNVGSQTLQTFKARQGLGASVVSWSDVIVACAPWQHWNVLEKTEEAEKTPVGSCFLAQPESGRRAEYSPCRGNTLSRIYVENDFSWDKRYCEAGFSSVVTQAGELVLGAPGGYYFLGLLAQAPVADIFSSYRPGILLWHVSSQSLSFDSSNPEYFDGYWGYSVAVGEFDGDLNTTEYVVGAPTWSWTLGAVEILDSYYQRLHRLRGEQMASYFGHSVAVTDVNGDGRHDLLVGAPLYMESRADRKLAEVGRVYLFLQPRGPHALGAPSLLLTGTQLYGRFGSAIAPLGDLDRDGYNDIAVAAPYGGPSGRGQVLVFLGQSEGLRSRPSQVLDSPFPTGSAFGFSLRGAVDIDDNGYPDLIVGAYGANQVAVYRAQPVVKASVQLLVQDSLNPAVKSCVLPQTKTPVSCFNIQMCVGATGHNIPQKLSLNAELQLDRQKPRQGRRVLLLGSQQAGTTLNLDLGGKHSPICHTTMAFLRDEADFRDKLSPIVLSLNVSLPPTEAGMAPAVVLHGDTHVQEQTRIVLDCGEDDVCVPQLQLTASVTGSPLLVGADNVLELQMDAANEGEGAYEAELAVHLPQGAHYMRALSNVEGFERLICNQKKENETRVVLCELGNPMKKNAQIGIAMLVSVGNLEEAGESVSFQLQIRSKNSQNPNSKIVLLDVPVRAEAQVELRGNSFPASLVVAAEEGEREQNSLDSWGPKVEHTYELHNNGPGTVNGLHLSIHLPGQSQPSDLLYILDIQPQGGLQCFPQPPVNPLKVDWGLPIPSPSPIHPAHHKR
# Integrin alpha-IIb/beta-3, sequence (P08514 891-1039 limits assumed): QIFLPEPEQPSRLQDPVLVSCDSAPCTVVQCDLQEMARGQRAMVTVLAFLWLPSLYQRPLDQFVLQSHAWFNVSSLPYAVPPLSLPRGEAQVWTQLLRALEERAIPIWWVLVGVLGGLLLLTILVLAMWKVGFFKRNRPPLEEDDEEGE
Structure (SMILES),IC50 (Homo sapiens) [µM],Ki [1] [µM]
CN(CCC1CCNCC1)C(=O)c1ccc2c(c1)CC(CC(=O)O)C(=O)N(CCc1cccs1)C2 (configuration not stated),0.018,0.0025
CN(CCC1CCNCC1)C(=O)c1ccc2c(c1)CC(CC(=O)O)C(=O)N(CCC(C)(C)C)C2 (configuration not stated),0.027,0.002
CN(C(=O)c1ccc2c(c1)NC(CC(=O)O)C(=O)N(CCc1ccccc1)C2)c1ccc(C(=N)N)cc1 (configuration not stated),0.028,
CN(CCC1CCNCC1)C(=O)c1ccc2c(c1)CC(CC(=O)O)C(=O)N(CCCCCc1ccccc1)C2 (configuration not stated),0.008,0.002
CN(C(=O)c1ccc2c(c1)CC(CC(=O)O)C(=O)N(CCc1ccccc1)C2)c1ccc(C(=N)N)cc1 (configuration not stated),0.012,0.0015
CN(CCC1CCNCC1)C(=O)c1ccc2c(c1)CC(CC(=O)O)C(=O)N(CCC1CCCCC1)C2 (configuration not stated),0.027,0.002
CN(CCC1CCNCC1)C(=O)c1ccc2c(c1)CC(CC(=O)O)C(=O)N(Cc1ccccc1)C2 (configuration not stated),0.036,0.001
CCCCN1Cc2ccc(C(=O)N(C)CCC3CCNCC3)cc2CC(CC(=O)O)C1=O (configuration not stated),0.031,0.0015
CN(CCC1CCNCC1)C(=O)c1ccc2c(c1)CC(CC(=O)O)C(=O)N(C1CCCCC1)C2 (configuration not stated),0.049,0.0013
CN(CCC1CCNCC1)C(=O)c1ccc2c(c1)CC(CC(=O)O)C(=O)N(CCc1ccccc1)C2 (configuration not stated),0.013,0.003
CC(C)N1Cc2ccc(C(=O)N(C)CCC3CCNCC3)cc2CC(CC(=O)O)C1=O (configuration not stated),0.037,0.002
N=C(N)c1ccc(NC(=O)c2ccc3c(c2)NC(CC(=O)O)C(=O)N(CCc2ccccc2)C3)cc1 (configuration not stated),0.008,
CC(C)CCN1Cc2ccc(C(=O)N(C)CCC3CCNCC3)cc2CC(CC(=O)O)C1=O (configuration not stated),0.032,0.0015
CN(CCC1CCNCC1)C(=O)c1ccc2c(c1)CC(CC(=O)O)C(=O)NC2 (configuration not stated),0.071,0.0032
CN(CCC1CCNCC1)C(=O)c1ccc2c(c1)CC(CCC(=O)O)C(=O)N(CCc1ccccc1)C2 (configuration not stated),7.79,0.65
CN(CCC1CCNCC1)C(=O)c1ccc2c(c1)CC(CC(=O)O)C(=O)N(C)C2 (configuration not stated),0.033,0.0015
CN(CCC1CCNCC1)C(=O)c1ccc2c(c1)CC(CC(=O)O)C(=O)N(CCc1ccc(F)cc1)C2 (configuration not stated),0.027,0.0017
